Test results taken from paper PMC6054100, “Exploring the chemical space of the lysine-binding pocket of the first kringle domain of hepatocyte growth factor/scatter factor (HGF/SF) yields a new class of inhibitors of HGF/SF-MET binding” (Chemical Science, 2015).

Biological target: T1, NK1 (Homo sapiens, UniProt P14210)
Assay: SPR steady-state binding to immobilized NK1 (Biacore T100)
Set-up: made in house; host or cells: Pichia pastoris
Settings: steady-state binding constant from SPR; fragment hits (Table 3, text); read-out: KD
Experimental: Binding constants of piperazine-like compounds and fragments were determined using a Biacore T100 instrument. NK1 was immobilized on a CM5 chip by amine coupling to a density of 6000 RU. Compounds were stored as 100 mM stock solutions in water and serial dilutions were prepared in the running buffer (PBS pH 7.4, 0.05% Tween 20). The compound solutions were injected onto the surface of the chip at a flow rate of 30 μL min^–1, contact time was 1 min and dissociation time 1 min. Sensorgrams were analysed using the Biacore T100 evaluation software and the binding constants determined.

T1 sequence (P14210 32-210 isoform P14210-6 limits assumed): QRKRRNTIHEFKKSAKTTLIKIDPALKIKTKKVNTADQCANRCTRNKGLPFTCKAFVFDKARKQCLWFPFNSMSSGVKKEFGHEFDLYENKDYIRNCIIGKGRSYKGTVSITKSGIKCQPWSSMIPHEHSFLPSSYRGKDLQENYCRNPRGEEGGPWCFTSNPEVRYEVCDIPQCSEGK

Kd [mM]	SMILES
0.35 ± 0.04	COc1ccc(C#N)cn1 [MB1261]
0.86 ± 0.07	Cc1cccc(C(N)=O)c1C [MB1284]
0.94 ± 0.09	CCCc1ccc(C(C)=O)cc1 [MB1315]
0.36 ± 0.04	Cc1cc(Cl)ccc1C(=O)O [MB1318]

Same assay, conditions: steady-state binding constants; piperazine-like compounds; immobilized NK1, PBS pH 7.4; read-out: KD in SPR

Kd [mM]	SMILES
30.2 ± 3.1	O=S(=O)(O)CCNC1CCCCC1 [CHES]
26.6 ± 0.6	O=S(=O)(O)CCN1CCN(CCS(=O)(=O)O)CC1 [PIPES, reference compound]

SMILES	Kd [mM]
O=S(=O)(O)CCCN1CCN(CCO)CC1 [(H)EPPS]	7 ± 1

Biological target: T2, lysine-binding pocket of the kringle domain of NK1 (Homo sapiens, UniProt P14210)
T2 construct: made in house; host or cells: Pichia pastoris
Assay: Soaking into NK1 apo crystals, X-ray crystallography
Settings: soaked into NK1 apo crystals
Experimental: Next, three classes of piperazine-like sulphonated compounds containing piperazine ((H)EPPS and PIPES), morpholine (MES and MOPS), or cyclohexane (CHES and CAPS) rings were studied for their binding to NK1 (Table 1), alongside another five sulphonated compounds selected from a chemical fragment library (Table 2).
NK1 buffered in 150 mM NaCl, 50 mM Tris, pH 7.5 (apo-NK1 and all soaking experiments) was concentrated to ∼20 mg mL^–1 using a Vivaspin device with a 10 kDa cut-off membrane (Sartorius Biolab). Crystallisation was carried out in Linbro plates by the vapour diffusion hanging drop technique using a protein : precipitant ratio of 1 : 1 at 20 °C. Previously NK1 has been crystallised in 18% PEG 4000, 200 mM sodium acetate and 150 mM Tris pH 8.5 as precipitant.[19] Here final crystallisation conditions (19% PEG 4000, 200 mM sodium acetate and 150 mM Tris pH 7.5) were optimised around those to achieve high-resolution apo structure. Details of compound soaking, X-ray data collection and structure determination are given in the ESI ^† section of the manuscript. […]
For this, 1 M stock solutions were prepared in DMSO (fragments) or water (piperazine- like compounds) and the pH adjusted to a value within their buffering range with either HCl or NaOH. The seven piperazine- like compounds and their respective pH are: HEPES (pH 7.6), (H)EPPS (pH 7.4), PIPES (pH 7.0), MES (pH 5.8), MOPS (pH 7.2), CHES (pH 8.6) and CAPS (pH 9.7). Secondary stocks of the compounds at 50 mM were prepared in the […]
respective mother liquor and soaked for up to 48 hours.
MB605 was solubilised in 50% DMSO at 20 mM concentration (1% f inal DMSO concentration in the drop) in order to minimize adverse effects of DMSO on the protein crystal. 25% ethylene glycol was used as the cryoprotective agent.
X-ray data collection and processing
X-ray datasets were collected either at the European Synchrotron Radiation Facility (ESRF, Grenoble, France), the Diamond Light Source (DLS, Oxford, UK) or in-house using the X8 PROTEUM (Bruker AXS) at the Department of Biochemistry, University of Cambridge.
Datasets of at least 180° were collected. Raw data collected at synchrotrons were integrated, merged, scaled and reduced using DENZO and […].2 Raw data […]
collected in- house were integrated, merged, scaled and reduced using the PROTEUM 2 software package .3 The CCP4 suite of crystallographic programs (Collaborative

T2 sequence (P14210 32-210 isoform P14210-6 limits assumed): as above

binding in the lysine-binding pocket (crystal structure)	SMILES
bound in the lysine-binding pocket	O=S(=O)(O)CCCO [2FA, 3-Hydroxypropane-1-sulphonic acid]
bind the lysine-binding pocket of NK1	O=S(=O)(O)CCNC1CCCCC1 [CHES]

Biological target: T1, NK1
Assay: 1H-15N TROSY-HSQC NMR chemical shift titration of 15N-labelled NK1
Assay type: binding
Set-up: made in house; host or cells: Pichia pastoris
Settings: steady-state binding constants; piperazine-like compounds; 0.18 mM NK1, pH 7.2, 310 K; read-out: KD in NMR
Experimental: Ligand screening was performed by monitoring the chemical shift variations in ^1H-^15N TROSY-HSQC NMR spectra of the uniformly [^15N]-labelled NK1 protein (Fragai et al. 2015, in prep.) upon the addition of increasing concentrations of the investigated compounds.[43]–[45] The experiments were performed using 0.18 mM protein samples in 25 mM Tris, 100 mM NaCl and 0.01% sodium azide, at pH 7.2 with 10% D2O. The spectra were recorded at 310 K on a Bruker AVANCE 900 MHz spectrometer equipped with a TXI cryo-probe. Sample solutions were prepared from 1 M or 100 mM DMSO stock solutions of the ligands. The dissociation constant values (KD) were calculated by plotting the weighted average ^1H and ^15N chemical shifts of the residues experiencing significant variations as a function of ligand concentration added during the titration and considering the one site binding model.[46]

Kd [mM]	SMILES
15.7 ± 4.5	O=S(=O)(O)CCNC1CCCCC1 [CHES]
45.9 ± 4.7	O=S(=O)(O)CCN1CCN(CCS(=O)(=O)O)CC1 [PIPES, reference compound]

SMILES	Kd [mM]
O=S(=O)(O)CCCN1CCN(CCO)CC1 [(H)EPPS]	4.4 ± 1.8

Biological target: T1, NK1
Assay: SPR fragment library screening against NK1
Assay type: binding
Set-up: made in house; host or cells: Pichia pastoris
Settings: based on fragment screening; rank among the 71 NK1 hits (ESI Tables S3-S7)
Experimental: Supplementary Materials and Methods
Fragment library screening and data analysis
Met567 (soluble truncated f ragment of the MET ectodomain, residues 25- 567), NK1 and t he SPH domain were immobilized on CM5 chips by amine coupling. NK1 was diluted into 10 m M phosphate pH 7.0 and the SPH domain into 10 mM acetate pH 5.5 to a final concentration of 2.5 μM and 1 μM, respectively, for coupling. The immobilization wizard within the Biacore T100 software was set to “aim for immobiliz ed level” of 8000 RU to achieve complete saturation of the chip surface.
W ith minor deviations, the procedure and conditions outlined below were used f or a ll screening s of an in-house fragment library of 1338 members against individual target proteins. The running buffer was PBS pH 7.4, 0.05% Tween 20, 0.25% DMSO (1% DMSO for Met567). Fragments were stored as 100 mM stock solutions in DMSO. Prior to screening, fragment samples were diluted to 500 μM (1 mM f or Met567) in running buffer.
Screening was performed in 96- we ll plates at a flow rate of 30 μl min-1 with 1 min sample injection f ollowed by dissociation f or 1 min and surf ace regeneration using 1 M NaCl f or 30 […]
post-regeneration baseline exceeded the pre- sample baseline by more than 10 RU, a second regeneration cycle with 50% ethylene glycol was used. In order to be able to correct for small variations in DMSO concentration between samples, eight solvent samples ranging from 0.012 to 1.5% DMSO were injected every 40th cycle. To monitor the binding capacity of the NK1, SPH and Met567 surfaces throughout the screening, injections of 500 μM HEPES (NK1), 0.25 μM Met567 (SPH) and 0.2 μM NK1 and 1% DMSO (Met567) were carried out every 40th cycle. The flow cell temperature was 25°C. NK1 and the SPH domain were immobilized on the same chip (channels 2 and 3 respectively) and were theref ore screened in parallel. Met567 was screened separately and results are published in an accompanying paper (W in t er et al. 2015, in revision).
For data analysis, fir st, all responses were reference and solvent corrected. 1 Next, equilibrium binding for every fragment was determined and hits established by applying several filters: sensorgram shape, upper and lower threshold. Typical sensorgrams from fragment screening show “square curves” in SPR due to the fast on and off rates and fragments not showing this response were discarded from further analysis. Binding levels are represented as response units (RU) but the SPR signal is a convolution of multiple parameters including target coupling density, target -binding activity, target molecular weight and molecular weight of each injected fragment. To be able to identif y hits accurately and to be able to compare responses between different plates and targets, data were normalised against these factors. First the theoretical maximum response for each fragment was calculated using equation 1:
RRmmm = CCCCCCCC ddCdCdd× MMffmCmdCd (Equation 1)
This RUmax value diff ers for each protein target because it depends on the molecular weight of the protein and the amount of protein immobilized on the chip (coupling density). The RUmax was then used to calculate the normalised relative SPR response:
NNNNNNNNNN NNNNr NrN SSR NNNrNrNN = RRcppppcppc× 100% (Equation 2) […]
fragment should cause upon binding. 100% response would be 1:1 binding wit h levels above 100% implying over-stoichiometric binding. […]
Fragment library screening to identify small molecule binders

Ranking order	SMILES
12	COc1ccc(C#N)cn1 [MB1261]
15	Cc1cccc(C(N)=O)c1C [MB1284]
47	CCCc1ccc(C(C)=O)cc1 [MB1315]
33	Cc1cc(Cl)ccc1C(=O)O [MB1318]

Same assay, conditions: normalised relative value against NK1; fragments 500 μM (ESI Tables S3-S7)

SPR response [%]	SMILES
95	COc1ccc(C#N)cn1 [MB1261]
90	Cc1cccc(C(N)=O)c1C [MB1284]
52	CCCc1ccc(C(C)=O)cc1 [MB1315]
61	Cc1cc(Cl)ccc1C(=O)O [MB1318]

Same assay, conditions: normalised relative value against NK1; initial fragment screening, fragments 500 μM (Table 3)

SPR response [%]	SMILES
95	COc1ccc(C#N)cn1 [MB1261]
90	Cc1cccc(C(N)=O)c1C [MB1284]
52	CCCc1ccc(C(C)=O)cc1 [MB1315]
61	Cc1cc(Cl)ccc1C(=O)O [MB1318]

Test system: MET downstream signalling (Erk 1/2, Akt) in Vero cells
Assay: MET, Erk1/2 and Akt phosphorylation assay in NK1-stimulated Vero cells (Western blot)
Assay type: cell-based
Settings: Vero cells stimulated with NK1; compound 100 mM (lanes 4)
Experimental: We evaluated the effect of piperazine-like compounds and MB605 on Vero cells by assessing MET, Erk 1/2 and Akt phosphorylation in response to stimulation using […] NK1. MB605 was dissolved in DMSO, which limited the range of concentrations tested to ≤1 mM in order to avoid solvent effects on cell function/viability. The water-soluble piperazine-like compounds, in contrast, could be tested at concentrations up to 100 mM.
Fig. 6 Biological activity of the piperazine-like compounds and MB605. (a–e) Vero cells expressing the receptor endogenously on their cell surface were stimulated with HGF/SF or NK1 and phosphorylation of MET and downstream targets Akt and Erk1/2 was analysed. Piperazine-like compounds HEPES (a), (H)EPPS (b), MES (c), MOPS (d) and CAPS (e) were tested at 100 mM (lanes 4), 10 mM (lanes 5), 1 mM (lanes 6) and 100 μM (lanes 7) concentration in the presence of 1 nM NK1. To control for activating or inhibiting effects of the compounds independently of MET, piperazine-like compounds were tested on cells at 100 mM without stimulation by NK1 (lanes 3). Biological activity of MB605 (f) was investigated at 1 mM (lane 5), 100 μM (lane 6) and 10 μM (lane 7) in the presence of a constant concentration of DMSO (0.1%). A solvent control (0.1% DMSO, lane 3) was included in order to account for the effect of DMSO on the cells. A positive control (1 nM NK1 in the presence of 0.1% DMSO) is shown in lane 4. In all experiments, un-stimulated cells served as negative control (lanes 1) while cells stimulated with 1 nM NK1 served as positive control (lanes 2).
The ability of MB605 and the piperazine-like compounds to inhibit MET, Erk and Akt phosphorylation in the presence of NK1 was tested using mammalian Vero cells as described by Ferraris et al.[47] and further details are given in the ESI ^† section of the manuscript. […]
For MET, Erk1/2 and Akt phosphorylation assays, Vero cells were seeded at 2.1 × 10^5 cells we ll -1 (2 ml we ll -1) in 6-well plates and grown to 90% conf luence in 10% FCS/DMEM media and then switched to serum-free medium (to avoid any growth f actors present in the serum).
24 hours post starvation the cells were stimulated for 5 min at 37°C with each individual piperazine -like compounds as well as with NK1 (1 nM) pre-incubated with different concentrations of the piperazine- like compounds (100 mM, 10 mM, 1 mM and 100 μM) or MB605 (1 mM, 100 μM and 10 μM). Stimulations with either 0. 1% DMS O or 1 nM of NK1 […]
solution were used as a negative and a positive control, respectively. The cells were then washed in PBS buffer, lysed on ice f or 30 min and frozen at -80 °C until further analysis. For

SMILES	Inhibition of phosphorylation of Erk 1/2 and Akt (S473)
O=S(=O)(O)CCCN1CCN(CCO)CC1 [(H)EPPS]	Inhibition of phosphorylation
